The results in this text go back to publication PMC8476547, “Epigenetic derepression converts PPARγ into a druggable target in triple-negative and endocrine-resistant breast cancers” (Cell Death Discovery, 2021).

Structures are written as SMILES.

A word on the IC50: it is the midpoint of a concentration-inhibition curve.

Data set [1] concerns luciferase-labeled, triple-negative MDA-MB-231 cells. Put plainly: Orthotopic mammary fat pad xenograft, bioluminescent tumor burden. The format is in vivo, mouse. Conditions: day 28; LBH589 2.5 mg/kg, rosiglitazone 10 mg/kg or both, i.p. five days per week for four weeks; control 9.9 ± 6.2.
Experimental: Female NCr nude mice (CrTac:NCr-Foxn1nu) aged 7 weeks were purchased from InVivos, Singapore. […] Mice were acclimatized to laboratory conditions for a minimum of 3 days prior to study initiation. All surgical procedures were performed under strict aseptic conditions according to the protocol approved by the SingHealth Institutional Animal Care and Use Committee (IACUC). […] A 1-cm incision was made at the abdominal mammary fat pad area. […] The incision was closed with wound clips (Stoelting Co, USA). To relieve post-surgical pain and prevent dehydration following surgery, 1 ml of 2 mg/ml meloxicam (Troy Ilium, Australia), diluted in 0.9% saline (B. Braun, Germany) was administered subcutaneously at the right flank of mice after surgery. Mice were recovered on a heating pad until fully awake from anesthesia before being returned to cages. Tumor growth was screened by imaging from the ventral view using the Xenogen IVIS system (Caliper Life Sciences, CA, USA). […] Bioluminescent signals around the tumor sites were identified and quantified as total photon counts using Living Image 4.2 software (Xenogen). […] The bodyweight of mice was measured prior to drug administration. Tumor growth was monitored twice a week using the Xenogen IVIS system throughout the entire 28 days of treatment. […]
Data set [2] is described as follows: Cellular IC50 of LBH589. The data set is classed as cell-based.
For data set [3], the system named is MDA-MB-231 CAM tumor. Put plainly: Chick chorioallantoic membrane (CAM) tumor vascularization, ultrasound imaging. The data set is classed as in vivo. Conditions: single treatments, 48 h.
Experimental: On Embryonic Day 3, a sharp weighted tool was used to poke a hole at the apex of the eggshell, and 3 mL of albumin was removed using a 5 ml syringe and 18G needle in order to drop the chick chorioallantoic membrane (CAM). The sharp-weighted tool was then used to poke a hole in the middle of the egg before using curved scissors to cut a 1cm2 hole. The eggs were screened, and dead embryos were removed.
On Embryonic Day 7, MDA-MB-231 cells were prepared for inoculation onto the CAM. DMEM was aspirated, cells were washed with PBS before the addition of 1 ml of 2.5 g/l Trypsin/EDTA solution onto the culture dish. The cells were then removed into a 15 ml Falcon tube and centrifuged for 3 min at 1200 rpm, before the supernatant was removed. Matrigel was added to the cell pellet on ice to resuspend the pellet, before the addition of 2 × 10^6 cells in a 50 µl of Matrigel-cell mixture onto CAM. […]
On Embryonic Day 10, the Tegaderm membrane was removed and Aquasonic gel was added onto the cling wrap which was carefully placed over the CAM. […] Tumor volumes and percentage vasculature were calculated by the Vevo Lab 1.7.0 programme.
Twenty microliters of single or combination treatments of LBH589 and rosiglitazone were added onto a 3.5 mm diameter autoclaved filter paper placed next to the formed tumor on the CAM. […] Percentage changes were calculated based on before and after drug treatment.
Data set [4] has as its system PPARγ. In words: PPRE-luciferase reporter assay (PPARγ activity). The data set is classed as cell-based, human. The conditions noted are these: MCF7, T47D, MDA-MB-231 and BT549 cells; 0, 50, 100 nM LBH589, 16 h. From the text:
We took advantage of the fact that downstream genes targeted by this transcription factor contain peroxisome proliferator response elements (PPRE), where it binds. […] To provide assurance that the enhanced bioluminescence is attributable to PPARγ receptor activation rather than some off-target consequence of pan-HDAC inhibition, we repeated the luciferase assays but modified the experiments to eliminate the contribution of PPARγ (Supplementary Results: Part S2).
For orientation: Reporter assays use an easily measured gene product as a stand-in for the process of interest.

The subject of data set [5] is PPARγ. In words: Immunoprecipitation of FLAG-tagged PPARγ, acetyl-lysine immunoblot. The format is cell-based, human. Conditions: MCF7 cells, 50 nM LBH589, first hour; overall FLAG-tagged PPARγ unchanged. On the procedure:
For detection of acetylation of PPARγ, immunoprecipitation with PPARγ was performed. Cells were seeded at […] density and transfected with FLAG-tagged PPARγ before treatment with LBH589. Cells were harvested and cell pellets were lysed in immunoprecipitation (IP) lysis buffer (pH 8). Two hundred and fifty micrograms of proteins were pre-cleared with magnetic G beads (Millipore, Bedford, MA) for 1 h before rotating with 1 μg of FLAG antibody or normal rabbit IgG overnight at 4 °C. Magnetic G beads were added to the mixture the next day and rotated for 1.5 h. Magnetic-enriched IP samples were washed four times in cold wash buffer (200 mM Tris [pH 8.0], 100 mM NaCl, 0.5% NP-40, 2 mM DTT, 0.5 mM PMSF, 1 mM sodium orthovanadate, 1 μg/ml leupeptin, and 1 μg/ml aprotinin) at 10 min intervals. Samples were then boiled in 5× SDS loading buffer and subjected to SDS-PAGE. Proteins were then transferred to PVDF membranes and detected for acetyl-lysine.

Data set [6] relates to PPARγ. In words: PPARγ mRNA and protein expression (RT-PCR, western blot). Conditions: MCF7 and MDA-MB-231, 50 nM LBH589, from the 3 h mark to 18 h. The data set is classed as cell-based, human. The protocol: Total RNA was isolated from cells using TRIZOL reagent (Invitrogen, Carlsbad, CA, USA), as described in the manufacturer’s instructions with a DNAse treatment step incorporated into the protocol. Each RT reaction contained 2.5 µg of total RNA, 1× RT buffer, 5 mM MgCl2, 425 µM each of dNTPs, 2 µM random hexamers, 0.35U/µl RNase inhibitor, and 1.1U/µl MultiScribe™ reverse transcriptase and made up to 10 µl with sterile water. The RT reaction was carried out at 37 °C for 1 h. Five microlitres of the 10 µl cDNA reaction volume were used in real-time quantitative PCR using ABI PRISM 7500 (Applied Biosystems, Foster City, CA, USA). Normalization was endogenous 18S. Fluorescence was measured with the Sequence Detection Systems 2.0 software. PCR was performed in multiplex (both target and endogenous control co-amplified in the same reaction) with distinct fluorescent dyes. Primers and probes for human 18S, human PPARγ, BIRC5, CyclinD1, VEGFA, and MnSOD were purchased from Applied Biosystems (Assays on Demand).
For orientation: In western blotting, separated proteins are transferred to a membrane and probed.

Data set [7] deals with ERα. Put plainly: ERα receptor expression (western blot). The format is cell-based, human. Conditions: ER-positive cell lines MCF7 and T47D.
The conditions of data set [8]: mouse, in vivo, ip, 7.5 mg/kg.
Experimental: (§1) A total of 39 mice were randomly assigned to 5 treatment groups with at least 7 animals in each group. Mice were treated with vehicle (10% DMSO), 2.5 mg/kg or 7.5 mg/kg of LBH589, 10 mg/kg, or 20 mg/kg of Rosiglitazone via i.p. injection five days per week. The animals were evaluated for changes in clinical signs (stooling, activity level, and body weight). Bodyweight was measured prior to dosing and mice were monitored regularly for any signs of distress after drug administration. All mice were humanely euthanized after 24 days.
Data set [9] deals with untransformed human breast epithelial cell lines MCF10A and MCF12A. Put plainly: PPARγ expression, activity and cell viability in normal breast epithelial cells. Conditions: 0, 50, 100 nM LBH589, 24 h.
Experimental: Whole-cell lysates were prepared with RIPA lysis buffer containing 10 mM Tris-HCL pH7.4, 30 mM NaCl, 1 mM EDTA, 1% Nonidet P-40, supplemented with 1 mM sodium orthovanadate (Na3VO4), 1 µg/ml leupeptin, 1 µg/ml pepstatin A, 1 µg/ml aprotinin, and 1 mM PMSF before use. […] Thereafter, proteins were transferred onto nitrocellulose membranes, blocked for 1 h at room temperature with 5% non-fat milk, and incubated overnight at 4 °C with the primary antibody. After probing with a secondary antibody for 1 h at 25 °C, protein bands were detected by using the Supersignal West Pico Chemiluminescent substrate kit. β-actin antibody was used as a loading control.
The luciferase reporter construct used was pPPRE-tk-Luc, which contains three PPREs from the rat acyl-CoA oxidase promoter under the control of the Herpes simplex virus thymidine kinase promoter (kind gift from Dr. Ronald M. Evans, The Salk Institute for Biological Studies, San Diego, CA, USA). 3× PPRE promoter activities were assessed with a dual-luciferase assay kit. […] Ten microlitres of cell lysate were then added to 50 μl of the luciferase substrate solution, following which 50 μl of stop and glow buffer was added for Renilla reading. Bioluminescence generated was measured using a Sirius luminometer (Berthold, Munich, Germany). The luminescence readings obtained were normalized to the protein content of the corresponding cell lysate. […]
Data set [10] can be described thus: Toxicity study in NCr nude mice. Conditions: LBH589 2.5 or 7.5 mg/kg, rosiglitazone 10 or 20 mg/kg, i.p. five days per week, three-week cycle.
Experimental: as §1

As for `Cc1[nH]c2ccccc2c1CCNCc1ccc(/C=C/C(=O)NO)cc1` [LBH589], in data set [1], the “relative tumor burden (fold change in bioluminescent signal normalized to pre-treatment radiance levels)” value is recorded as 5.8 ± 3.7 fold. In data set [2], this compound gave an IC50 of 50 nM. In [3], the “CAM tumor volume / tumor size compared to DMSO control” value is “did not have any significant effects” and the “changes in CAM vascular volumes compared to DMSO” value is listed as “No significant changes”. Besides, the PPRE-luciferase reporter activity result in [4] is recorded as “dose-dependently enhanced”. Besides, in [5], the “acetylated PPARγ” value is on record as “marked initial accumulation”. Also, the “intracellular PPARγ mRNA and protein” value in data set [6] is “steady and gradual rise”. Also, the ERα receptor expression entry in data set [7] was “dose-dependently suppressed”. Besides, the “clinical signs (weight gain, stooling) compared to lower dosage or placebo” value in [8] is “less weight gain and softer stools”. In addition, the “PPARγ expression and activity” value in data set [9] was “did not upregulate PPARγ expression or augment its activity”.
`CN(CCOc1ccc(CC2SC(=O)NC2=O)cc1)c1ccccn1` (stereo not drawn) [rosiglitazone]: the “relative tumor burden (fold change in bioluminescent signal normalized to pre-treatment radiance levels)” value in data set [1] came to 5.3 ± 0.8 fold. In [10], the “loss of original bodyweight” value is ≤ 10%.
